In brackets after ≈: the same amount, converted by molar mass.
Assays:
P. aeruginosa (1188712) [1] = tested on: P. aeruginosa (1188712)
[2] = tested on: P. aeruginosa (ATCC 27853)
[3] = tested on: P. aeruginosa (ATCC 27883); conditions: 24 h, ≥99.9% kill
[4] = tested on: K. pneumoniae (ATCC BAA-1705); conditions: 24 h, ≥99.9% kill
[5] = tested on: Acinetobacter baumannii (NCTC 13304)
E. coli (1191008) [6] = tested on: E. coli (1191008)
[7] = tested on: K. pneumoniae (ATCC 700603)
S. aureus (1193193) [8] = tested on: S. aureus (1193193)
K. pneumoniae (1188718) [9] = tested on: K. pneumoniae (1188718)
S. aureus (ATCC 29213) [10] = tested on: S. aureus (ATCC 29213)
[11] = tested on: Acinetobacter baumannii-calcoaceticus species complex (1189854)
[12] = tested on: Acinetobacter baumannii-calcoaceticus species complex (1188767)
[13] = tested on: K. pneumoniae (ATCC BAA 1705)
E. coli (ATCC 25922) [14] = tested on: E. coli (ATCC 25922)
E. coli (ATCC 25922) [15] = conditions: 24 h, ≥99.9% kill
in vitro = conditions: human, human plasma
Experimental: For accurate quantification, we employed a mass spectrometer (Q-TOF LC/MS) with a high resolving power. To remove the background interference, the data were processed by using a narrower (±0.1 m/z) extracted ion chromatogram (EIC) window. The test peptide (100 μM) was incubated in human plasma at 37 °C in a water bath. […] Plasma proteins were precipitated by the addition of cold ethanol (200 μL) and incubated for 30 min at −20 °C. […] The samples were dissolved in water and analyzed on a Delta-Pak (Waters) C18 column (100 Å, 5 μm, 3.9 mm × 150 mm) at a flow rate of 0.3 mL/min using a linear gradient of aqueous acetonitrile in the presence of formic acid (FA; 0.1%, v/v) as an ion pair reagent. Peptides were detected by recording the absorbance at 220 nm and quantified by their peak areas of EIC. The percentage digestion of the test peptides was calculated relative to the peak areas at 0 min.

[16] = tested on: human red blood cells (hRBCs); conditions: red cells of human, 2 h
Experimental: The hemolytic activity of all the cyclic peptides was determined using human red blood cells (hRBC) purchased from BioIVT, USA. […] Peptide-induced hemolysis was tested in triplicate by mixing 75 μL of the peptide solution in PBS (two-fold serial dilution) with 75 μL of a 4% (v/v) hRBC suspension in phosphate-buffered saline. The plates were incubated for 2 h at 37 °C without agitation and centrifuged at 1000g for 10 min. Aliquots (100 μL) of the supernatant were transferred to 96-well plates, where hemoglobin release was measured spectrophotometrically at 567 nm. Percent hemolysis was calculated by the following formula: [drawing 1] where A represents the absorbance of the peptide sample at 567 nm and A0 and At represent zero percent and 100% hemolysis determined in phosphate-buffered saline and 1% Triton X-100, respectively.

[17] = tested on: K. pneumoniae (ATCC 700603); assay: microbe, parasite or virus in culture; conditions: Klebsiella pneumoniae, ATCC700603, read-out: MIC K. pneumoniae (ATCC 700603)
S. aureus (ATCC 29213) [18] = assay: microbe, parasite or virus in culture; conditions: Staphylococcus aureus, ATCC29213, read-out: MIC S. aureus (ATCC 29213)
[19] = tested on: P. aeruginosa (ATCC 27853); assay: microbe, parasite or virus in culture; conditions: Pseudomonas aeruginosa, ATCC27853, read-out: MIC P. aeruginosa (ATCC 27853)
E. coli (1191008) [20] = assay: microbe, parasite or virus in culture; conditions: Escherichia coli, read-out: MIC E. coli (1191008)
K. pneumoniae (1188718) [21] = assay: microbe, parasite or virus in culture; conditions: Klebsiella pneumoniae, read-out: MIC K. pneumoniae (1188718)
E. coli (ATCC 25922) [22] = assay: microbe, parasite or virus in culture; conditions: Escherichia coli, ATCC25922, read-out: MIC E. coli (ATCC 25922)
P. aeruginosa (1188712) [23] = assay: microbe, parasite or virus in culture; conditions: Pseudomonas aeruginosa, read-out: MIC P. aeruginosa (1188712)
S. aureus (1193193) [24] = assay: microbe, parasite or virus in culture; conditions: Staphylococcus aureus, read-out: MIC S. aureus (1193193)

N=C(N)NCCC[C@@H]1NC(=O)[C@H](CCCNC(=N)N)NC(=O)[C@H](CCCNC(=N)N)NC(=O)[C@H](Cc2c[nH]c3ccccc23)NC(=O)[C@H](Cc2c[nH]c3ccccc23)NC(=O)[C@H](Cc2c[nH]c3ccccc23)NC(=O)[C@H](Cc2c[nH]c3ccccc23)NC(=O)[C@H](CCCNC(=N)N)NC(=O)[C@H](CCCNC(=N)N)NC1=O [5a, [R5W4]]
MIC S. aureus (1195201) (S. aureus (1195201)): 4 µg/mL (≈ 2.62 µM) | MIC E. coli (ATCC BAA-2452) (E. coli (ATCC BAA-2452)): 16 µg/mL (≈ 10.5 µM) | MIC P. aeruginosa (1188712) (P. aeruginosa (1188712) [1]): 16 µg/mL (≈ 10.5 µM) | MIC P. aeruginosa (ATCC 27853) [2]: 32 µg/mL (≈ 21 µM) | MBC P. aeruginosa (ATCC 27883) [3]: 32 µg/mL (≈ 21 µM) | MBC K. pneumoniae (ATCC BAA-1705) [4]: 64 µg/mL (≈ 41.9 µM) | MIC Acinetobacter baumannii (NCTC 13304) [5]: 16 µg/mL (≈ 10.5 µM) | MIC E. coli (1191008) (E. coli (1191008) [6]): 16 µg/mL (≈ 10.5 µM) | MIC K. pneumoniae (ATCC 700603) [7]: >64 µg/mL | MIC S. aureus (1193193) (S. aureus (1193193) [8]): 4 µg/mL (≈ 2.62 µM) | MIC K. pneumoniae (1188718) (K. pneumoniae (1188718) [9]): >64 µg/mL | MIC S. aureus (ATCC 29213) (S. aureus (ATCC 29213) [10]): 4 µg/mL (≈ 2.62 µM) | MIC Acinetobacter baumannii-calcoaceticus species complex (1189854) [11]: 16 µg/mL (≈ 10.5 µM) | MIC Acinetobacter baumannii-calcoaceticus species complex (1188767) [12]: 32 µg/mL (≈ 21 µM) | MIC K. pneumoniae (ATCC BAA 1705) [13]: >64 µg/mL | MIC E. coli (ATCC 25922) (E. coli (ATCC 25922) [14]): 16 µg/mL (≈ 10.5 µM) | MIC P. aeruginosa (1191191) (P. aeruginosa (1191191)): 32 µg/mL (≈ 21 µM) | MBC E. coli (ATCC 25922) (E. coli (ATCC 25922) [15]): 16 µg/mL (≈ 10.5 µM) | remaining at 0.5 h, 100 μM (in vitro): ~79% | remaining at 2 h, 100 μM (in vitro): ~56% | HC50 [16]: 340 µg/mL

CO/N=C(\C(=O)N[C@@H]1C(=O)N2C(C(=O)[O-])=C(C[N+]3(C)CCCC3)CS[C@H]12)c1csc(N)n1 [cefepime]
MIC [17]: 1 µg/mL (≈ 2.08 µM) | MIC (S. aureus (ATCC 29213) [18]): 2 µg/mL (≈ 4.16 µM) | MIC [19]: 1 µg/mL (≈ 2.08 µM) | MIC (E. coli (1191008) [20]): 8 µg/mL (≈ 16.6 µM) | MIC (K. pneumoniae (1188718) [21]): 8 µg/mL (≈ 16.6 µM) | MIC (E. coli (ATCC 25922) [22]): 0.06 µg/mL (≈ 0.125 µM) | MIC (P. aeruginosa (1188712) [23]): 8 µg/mL (≈ 16.6 µM) | MIC (S. aureus (1193193) [24]): 16 µg/mL (≈ 33.3 µM)

Reference: paper PMC9743092, “Membrane-Active Cyclic Amphiphilic Peptides: Broad-Spectrum Antibacterial Activity Alone and in Combination with Antibiotics” (Journal of Medicinal Chemistry, 2022)
